Assay results published in ChEMBL document CHEMBL1155701, “Two novel cyclic peptides with antifungal activity from the cyanobacterium Tolypothrix byssoidea (EAWAG 195)” (J Nat Prod, 2001).
≈ marks a conversion by molar mass, not a printed value. Non-standard residues stand in square brackets, D forms with d. Residues, ends and D or L forms follow the SMILES beside them. Dhb = C/C=C(\N)C(=O)O

Test system: Candida albicans
Assay: Antifungal activity against Candida albicans ATCC 26790
Assay type: functional, organism-based

MIC	IC50	Structure (SMILES)
32 µg/mL (≈ 21.8 µM)	–	C/C=C1\NC(=O)[C@H](Cc2ccccc2)NC(=O)[C@H]([C@@H](C)CC)NC(=O)[C@H]([C@@H](C)CC)NC(=O)[C@H]([C@@H](C)O)NC(=O)[C@@H](CC(C)C)NC(=O)[C@H](CCCNC(=N)N)NC(=O)[C@H]2CCCN2C(=O)[C@H](C(C)C)NC(=O)[C@H](C(C)C)NC(=O)[C@H]([C@@H](C)O)NC(=O)[C@H]([C@@H](C)OC(C)=O)NC(=O)[C@H](C(C)C)NC1=O
–	8 µg/mL (≈ 19.2 µM)	Clc1ccc(COC(Cn2ccnc2)c2ccc(Cl)cc2Cl)c(Cl)c1 (stereo not drawn) [MICONAZOLE]
64 µg/mL (≈ 42.9 µM)	–	C/C=C1\NC(=O)[C@H](C(C)C)NC(=O)[C@H](Cc2ccccc2)NC(=O)[C@H](C(C)C)NC(=O)[C@H](C(C)C)NC(=O)[C@H](C(C)C)NC(=O)[C@H]([C@@H](C)O)NC(=O)[C@H]([C@@H](C)CC)NC(=O)[C@H]([C@@H](C)O)NC(=O)[C@H](C(C)C)NC(=O)[C@H](CCSC)NC(=O)[C@H](Cc2ccc(O)cc2)NC(=O)[C@H](CCCNC(=N)N)NC1=O (cyclo([Dhb]RYMVTITVVVFV))
